Residues, ends and D or L forms follow the SMILES beside them. No end group written: not given here.
Experiments:
[1] = target: T1, binding of properdin to C3b coated plates (Homo sapiens, UniProt P01024); details: peptides at 0-200 μg/ml; cited from earlier work
T1 construct: The resulting convertase proteolytically modifies C3, producing the C3b fragment

[2] = system: C5b-9 membrane-attack complex (MAC) formation via the alternative pathway; assay: Alternative pathway-dependent MAC assay on LPS-coated wells (ELISA); type: biochemical, human; details: peptides; ELISA as described in Example 3; read-out: IC50, inhibition of MAC formation
Source text: The binding data of Examples 1 and 2 above reveal that the properdin monoclonal antibody prevents the binding of properdin to C3b and the functional C3 convertase (C3bBb). […] The final end product of this pathway is the C5b-9 membrane-attack complex (MAC). To analyze the effects of the properdin antibody on MAC formation via the alternative pathways, an assay was utilized in which bacterial LPS was used as a substrate to initiate the alternative complement pathway cascade.
Microtiter wells were coated with LPS (2 μg/50 μl per well) in VBS overnight at 4° C. Uncoated wells served as background controls. After aspirating the LPS solution, wells were treated with blocking solution and incubated with various concentrations of normal human serum. Following a 3 hour incubation at 37° C., deposited MAC was detected with mouse anti-human soluble C5b-9 monoclonal antibody (Quidel, Cat. No. A239) using standard ELISA methodologies essentially as described in the Examples above. The effect of the blocking antibody on the MAC formation was evaluated by adding various concentrations of blocking antibody to a fixed concentration of serum (4% in blocking solution). The amount of inhibition of soluble C5b-9 formation was determined using the antibody detection system described in the Examples above.

[3] = target: T2, properdin binding to C3bBb (Homo sapiens, UniProt P01024+P27918); assay: C3b(Bb)-properdin binding inhibition in human serum (ELISA); details: peptides; tested as described in Example 2; read-out: IC50, blocking of C3bBb binding
T2 construct: The resulting convertase proteolytically modifies C3, producing the C3b fragment; tissue Sigma Chemical Company (serum)
Experimental: This assay was carried out as described in Example 1 above with some changes. Briefly, microtiter wells were coated with C3b, washed, blocked and incubated with various concentrations of normal human serum (NHS) (Sigma Chemical Company, Cat. No. S1764) diluted in blocking solution for 2 hours at room temperature. Under the conditions of this binding assay, factor B in serum will bind solid phase-bound C3b and, after cleavage by factor D in serum, generates C3bBb. Properdin is known to bind C3bBb with high affinity (Farries, T. C., P. J. Lachmann, and R. A. Harrison, 1988, Biochem. 252:47-54). Uncoated wells served as background controls. After washing, bound-properdin was detected with the anti-properdin antibody as described in Example 1 above.
To evaluate the effect of the blocking antibody to inhibit properdin binding to C3b(Bb), various concentrations of the blocking antibody described in Example 1 above were added to a fixed concentrations of serum (4% in blocking solution). The amount of properdin bound to C3b(Bb) was detected using the detection system described in Example 1 above.

human C3b = target: T3, human C3b (Homo sapiens, UniProt P01024); assay: C3b-properdin binding ELISA (properdin titration on immobilized C3b); details: FIG. 1, read-out: apparent binding constant (concentration of properdin needed to reach half-maximal binding to C3b)
T3 construct: The resulting convertase proteolytically modifies C3, producing the C3b fragment; purchased Calbiochem, San Diego, Calif; 204860
Experimental: Polystyrene microtiter plates were coated with human C3b (0.5 μg/50 μl per well) (Calbiochem, San Diego, Calif., Cat. No. 204860) in Veronal buffered saline (VBS): (5 mM diethyl barbiturate, 120 mM NaCl, 5 mM MgCl2, 5 mM EGTA) overnight at 4° C. After aspirating the C3b solution, wells were blocked with VBS containing 0.5% human serum albumin (HSA) (Sigma Chemical Company, St. Louis, Mo., Cat. No. A9511) for 2 hours at room temperature. Wells without C3b coating served as background controls. Aliquots of human properdin (or factor P) (Advanced Research Technology, San Diego, Calif., Cat. No. A139) at varying concentrations in blocking solution were added to the wells. Following a 2 hour incubation at room temperature, the wells were extensively rinsed with VBS.
C3b-bound properdin was detected by the addition of mouse monoclonal anti-human properdin antibody (detection antibody) (Quidel, San Diego, Calif., anti-human properdin monoclonal antibody P#2, Cat. No. A235) at 1:1000 dilution in blocking solution, which was allowed to incubate for 1 hour at room temperature. […] After incubation for 10 minutes at 25° C., the reaction of TMB was quenched by the addition of 100 μl of phosphoric acid, and the plate was read at 450 nm in a microplate reader (e.g., SPECTRA MAX 250, Molecular Devices, Sunnyvale, Calif.). […]

[4] = system: Fcγ receptors on neutrophils; assay: Chemiluminescence assay for superoxide production in diluted whole blood; type: cell-based; details: 5 μg/ml properdin alone
Source text: Such agents may be screened for their ability to activate Fcγ receptors by a variety of assays known in the art. Since superoxide generation is one of the classic responses of neutrophils and other phagocytes to activation via Fcγ receptors (RII), a specific assay for superoxide release from cells in diluted whole blood was utilized to screen and evaluate agents and the possible role of Fcγ receptors in neutrophil activation by such an agent. Monoclonal antibody agents are generally ineffective aggregating agents upon binding to their antigen and thus ineffective to activate Fcγ receptors via immune complex formation. However, Fcγ activation was detected for a blocking anti-properdin monoclonal antibody as follows.
A chemiluminescence assay for superoxide production in diluted whole blood was performed (Tose, M. F. and A. Itamedani, 1992, Am. J. Clin. Pathol. 97:566-573). Fresh blood was collected by a finger prick and rapidly diluted 350-fold into phenol red-free RPMI-1640 media containing Pen-Strep which was buffered with 10 mM HEPES (pH 7.4) at 37° C. The media also contains 10 μM lucigenin (Sigma Chemical Co.), a compound which becomes chemiluminescent when reduced by superoxide. […] At regular intervals, chemiluminescence was monitored by transferring each sample into a liquid scintillation counter (Packard Model 1900 TR) operated in a single photon mode to determine the “cpm”.

Compound	compete with properdin for C3 binding [1]	IC50 [2]	IC50 [3]	Kd (human C3b)	superoxide levels over control levels [4]
Ac-CRSPRWSLWS (N-terminus assumed) [peptide 2]	compete	335 µM	400 to 600 µM	–	–
human properdin: human properdin (or factor P), Advanced Research Technology Cat. No. A139	–	–	–	~0.001 µM	not significantly elevated
CC(=O)NCC(=O)N[C@@H](CC(C)C)C(=O)N[C@@H](CS)C(=O)N[C@@H](CCC(N)=O)C(=O)N1CCC[C@H]1C(=O)N[C@@H](CS)C(=O)N[C@@H](CCCNC(=N)N)C(=O)N[C@@H](CO)C(=O)N1CCC[C@H]1C(=O)N[C@@H](CCCNC(=N)N)C(=O)O [Peptide 1] (Ac-GLCQPCRSPR-OH; N-terminus and C-terminus assumed)	compete	268 µM	400 to 600 µM	–	–
Ac-RYRRCVGWNG (N-terminus assumed) [peptide 3]	compete	242 µM	400 to 600 µM	–	–

From patent publication US20030198636A1, “Process for inhibiting complement activation via the alternative pathway” (priority 1997, published 2003)
